Laboratory results: US9701628B2, “12-epi pleuromutilins” (NABRIVA THERAPEUTICS AG, priority 2014, dated 2017)
≈ marks a conversion by molar mass, not a printed value. Structures can show the parent of a compound that is named as a salt. Where two headings read alike, the source gives them in different places.

Legend:
[1] = test system: Staphylococcus aureus ATCC 49951; assay: MIC by broth microdilution (CLSI) against Staphylococcus aureus ATCC 49951; type: cell-based
Protocol: (§1) The in vitro activity against aerobic bacteria was determined by Broth Microdilution Test according to the Clinical and Laboratory Standards Institute (CLSI, former NCCLS) Document M7-A9 Vol 32, No 2 “Methods for Dilution Antimicrobial Susceptibility Tests for Bacteria that Grow Aerobically; Approved Standard—Ninth Edition (2012)”; and the test against anaerobic bacteria was performed by Agar Dilution Test according to the Clinical and Laboratory Standards Institute (CLSI, former NCCLS), Document, M11-A8, Vol. 32, No. 5: “Methods for Antimicrobial Susceptibility Testing of Anaerobic Bacteria; Approved Standard—Eighth Edition (2012)”. Performance standards and interpretive criteria followed the CLSI Document, M100-S23: “Performance Standards for Antimicrobial Susceptibility Testing; Twenty-Third Informational Supplement” (2013). The in vivo activity was tested by the septicaemia mouse model against Staphylococcus aureus and Escherichia coli.
(§2) The antibacterial activity expressed as minimal inhibitory concentration (MIC) was determined according to the approved standard reference recommendations of CLSI (former NCCLS) as described in the description of the application.

[2] = test system: Escherichia coli ATCC25922; assay: MIC by broth microdilution (CLSI) against Escherichia coli ATCC 25922; type: cell-based
Protocol: as §1, §2

[3] = ATCC49951, Staphylococcus aureus ATCC 49951, in vitro, read-out: MIC
[4] = Escherichia coli ATCC25922, in vitro, read-out: MIC
[5] = Staphylococcus aureus ATCC 49951, in vitro
[6] = Escherichia coli ATCC25922, in vitro

Compound	MIC [1, 3] [µg/mL]	MIC [2, 4] [µg/mL]	MIC [1, 5]	MIC [2, 6] [µg/mL]	further results
C[C@@H]1CC[C@@]23CCC(=O)[C@H]2[C@]1(C)[C@H](OC(=O)CSc1ccc(C(=O)NCc2ccc(CN)cc2)cc1)C[C@](C)(CNCCCCCCN)[C@@H](O)[C@@H]3C [Example 23, 12-epi-12-desvinyl-14-O-{[4-(4-Aminomethyl-benzylcarbamoyl)-phenylsulfanyl]-acetyl}-12-[(6-amino-hexylamino)-methyl] mutilin trihydrochloride]	≤ 0.03	1	–	–	–
C[C@@H]1CC[C@@]23CCC(=O)[C@H]2[C@]1(C)[C@H](OC(=O)CSc1ccc(CCCN)cc1)C[C@](C)(CNCCCCCCN)[C@@H](O)[C@@H]3C [Example 48, 12-epi-12-desvinyl-14-O-{[4-(3-Amino-propyl)-phenylsulfanyl]-acetyl}-12-[(6-amino-hexylamino)-methyl] mutilin trihydrochloride]	≤ 0.03	0.25	–	–	–
C[C@@H]1CC[C@@]23CCC(=O)[C@H]2[C@]1(C)[C@H](OC(=O)CSc1ccc(CN)cn1)C[C@](C)(CNCc1ccc(CN)cc1)[C@@H](O)[C@@H]3C [Example 98, 12-epi-12-desvinyl-14-O-{[5-Aminomethyl-pyridin-2-yl-sulfanyl)]-acetyl}-12-[(4-aminomethyl-benzylamino)-methyl] mutilin tetrahydrochloride]	0.125	0.5	–	–	–
C=C[C@]1(C)C[C@@H](OC(=O)CSC(C)(C)CNC(=O)[C@H](N)C(C)C)[C@]2(C)[C@H](C)CC[C@]3(CCC(=O)[C@H]32)[C@@H](C)[C@@H]1O [Econor, econor, reference compound]	–	–	≦0.03 μg/mL	32 (≈ 56.7 µM)	–
C[C@@H]1CC[C@@]23CCC(=O)[C@H]2[C@]1(C)[C@H](OC(=O)CSC1CCCNCC1)C[C@](C)(CCNc1ccc(CN)cc1)[C@@H](O)[C@@H]3C (stereo partly drawn) [Example 143, 12-epi-12-desvinyl-14-O-[(Azepan-4-ylsulfanyl)-acetyl]-12-[(4-aminomethyl-phenylamino)-ethyl] mutilin trihydrochloride]	0.125	4	–	–	–
C[C@@H]1CC[C@@]23CCC(=O)[C@H]2[C@]1(C)[C@H](OC(=O)CSC1CCN(C(=O)CN)CC1)C[C@](C)(CCCCCCCCN)[C@@H](O)[C@@H]3C [Example 146, 12-epi-12-desvinyl-14-O-{[1-(2-Amino-acetyl)-piperidin-4-yl-sulfanyl]-acetyl}-2-(8-amino-octyl) mutilin dihydrochloride]	≤ 0.03	8	–	–	–
12-epi-12-desvinyl-14-O-{[1-(2-Amino-acetyl)-piperidin-4-yl-methylsulfanyl]-acetyl}-12-[(4-aminomethyl-phenylamino)-methyl] mutilin trihydrochloride [Example 81]	–	–	0.125 µg/mL	8	–
CC1C(O)C(C)(CNCCCN)CC(OC(=O)CSc2ccc(CNCc3ccc(CN)cc3)cc2)C2(C)C(C)CCC13CCC(=O)C32.Cl.Cl.Cl.Cl (stereo not drawn) [Example 115, 12-epi-12-desvinyl-14-O-{{4-[(4-Aminomethyl-benzylamino)-methyl]-phenylsulfanyl}-acetyl}-12-[(3-amino-propylamino)-methyl] mutilin tetrahydrochloride]	–	–	≦0.03 μg/mL	0.25	–
C=C[C@@]1(C)C[C@@H](OC(=O)CSc2nnc(N)[nH]2)[C@]2(C)[C@H](C)CC[C@]3(CCC(=O)[C@H]32)[C@@H](C)[C@@H]1O.Cl [Example C1, 12-epi-14-O-{[(5-Amino-4H-1,2,4-triazol-3-yl)-sulfanyl]-acetyl} mutilin hydrochloride, reference compound]	–	–	0.5 µg/mL	128	–
C[C@@H]1CC[C@@]23CCC(=O)[C@H]2[C@]1(C)[C@H](OC(=O)CSc1cccc(CN)c1)C[C@](C)(CNCCCN)[C@@H](O)[C@@H]3C.Cl.Cl.Cl [Example 86, 12-epi-12-desvinyl-14-O-[(3-Aminomethyl-phenylsulfanyl)-acetyl]-12-[(3-amino-propylamino)-methyl] mutilin trihydrochloride]	–	–	0.06 µg/mL	0.5	–
CC1C(O)C(C)(CNCc2ccc(CN)cc2)CC(OC(=O)CSCCO)C2(C)C(C)CCC13CCC(=O)C32.Cl.Cl (stereo not drawn) [Example 64, 12-epi-12-desvinyl-14-O-[(2-Hydroxy-ethylsulfanyl)-acetyl]-12-[(4-aminomethyl-benzylamino)-methyl] mutilin dihydrochloride]	–	–	0.5 µg/mL	4	–
C[C@@H]1CC[C@@]23CCC(=O)[C@H]2[C@]1(C)[C@H](OC(=O)CSC1CCCNCC1)C[C@](C)(CNCCCCCCN)[C@@H](O)[C@@H]3C (stereo partly drawn) [Example 130, 12-epi-12-desvinyl-14-O-[(Azepan-4-ylsulfanyl)-acetyl]-12-[(6-amino-hexylamino)-methyl] mutilin trihydrochloride]	≤ 0.03	0.5	–	–	–
C[C@@H]1CC[C@@]23CCC(=O)C2[C@]1(C)[C@H](OC(=O)CSC1CCC(CNC(=O)CN)CC1)C[C@](C)(CCc1ccc(CNCCN)cc1)[C@@H](O)[C@@H]3C (stereo partly drawn) [Example 152, 12-epi-12-desvinyl-14-O-{{4-[(2-Amino-acetylamino)-methyl]-cyclohexylsulfanyl}-acetyl}-12-[2-{4-[(2-amino-ethylamino)-methyl]-phenyl}-ethyl) mutilin trihydrochloride]	0.25	4	–	–	–
C[C@@H]1CC[C@@]23CCC(=O)[C@H]2[C@]1(C)[C@H](OC(=O)CSc1ccc(CC(=O)NCCCN)cc1)C[C@](C)(CCNCCCN)[C@@H](O)[C@@H]3C [Example 52, 12-epi-12-desvinyl-14-O-{{4-[(3-Amino-propylcarbamoyl)-methyl]-phenylsulfanyl}-acetyl}-12-[2-(3-amino-propylamino)-ethyl] mutilin trihydrochloride]	≤ 0.03	0.5	–	–	–
C=CC1(C)CC(OC(=O)CSc2ccc(CC(=O)NCC(C)N)cc2)C2(C)C(C)CCC3(CCC(=O)C32)C(C)C1O.Cl (centres unmarked) [Example C2, 14-O-{{4-[(2-Amino-propylcarbamoyl)-methyl]-phenylsulfanyl}-acetyl} mutilin hydrochloride, reference compound]	–	–	≦0.03 μg/mL	32	–
C[C@@H]1CC[C@@]23CCC(=O)[C@H]2[C@]1(C)[C@H](OC(=O)CSC1CCC(CN)CC1)C[C@](C)(CNCCCCCCN)[C@@H](O)[C@@H]3C (stereo partly drawn) [Example 47, 12-epi-12-desvinyl-14-O-{[(4-Aminomethyl-cyclohexyl)-sulfanyl]-acetyl}-12-[(6-amino-hexylamino)-methyl] mutilin trihydrochloride]	≤ 0.03	0.5	–	–	–
CC1C(O)C(C)(CNCc2ccc(CN)cc2)CC(OC(=O)CSCCN)C2(C)C(C)CCC13CCC(=O)C32.Cl.Cl.Cl (stereo not drawn) [Example 65, 12-epi-12-desvinyl-14-O-[(2-Amino-ethylsulfanyl)-acetyl]-12-[(4-aminomethyl-benzylamino)-methyl] mutilin trihydrochloride]	–	–	0.5 µg/mL	2	–
C=C[C@]1(C)C[C@@H](OC(=O)CS[C@@H]2C[C@H]3CC[C@@H](C2)N3C)[C@]2(C)[C@H](C)CC[C@]3(CCC(=O)[C@H]32)[C@@H](C)[C@@H]1O [Retapamulin, retapamulin, reference compound]	–	–	–	–	MIC ([1]; Staphylococcus aureus, ATCC49951): ≤ 0.03 µg/mL; MIC ([2]; Escherichia coli, ATCC25922): 32 µg/mL (≈ 61.8 µM)
C[C@@H]1CC[C@@]23CCC(=O)[C@H]2[C@]1(C)[C@H](OC(=O)CSC1CCN(C(=O)CN)CC1)C[C@](C)(CNCc1ccc(CN)cc1)[C@@H](O)[C@@H]3C [Example 78, 12-epi-12-desvinyl-14-O-{[1-(2-Amino-acetyl)-piperidin-4-yl-sulfanyl)]-acetyl}-12-[(4-aminomethyl-benzylamino)-methyl] mutilin trihydrochloride]	0.5	2	–	–	–
C[C@@H]1CC[C@@]23CCC(=O)[C@H]2[C@]1(C)[C@H](OC(=O)CS[C@@H]1CC[C@@H](N)C[C@H]1O)C[C@](C)(CNCCCN)[C@@H](O)[C@@H]3C.Cl.Cl.Cl [Example 62, 12-epi-12-desvinyl-14-O-{[(1R,2R,4R)-4-Amino-2-hydroxy-cyclohexylsulfanyl]-acetyl}-12-[(3-amino-propylamino)-methyl] mutilin trihydrochloride]	–	–	0.25 µg/mL	4	–
C[C@@H]1CC[C@@]23CCC(=O)[C@H]2[C@]1(C)[C@H](OC(=O)CSC1CCN(C(=O)CN)CC1)C[C@](C)(CNCc1ccc(OCCN)cc1)[C@@H](O)[C@@H]3C [Example 83, 12-epi-12-desvinyl-14-O-{[1-(2-Amino-acetyl)-piperidin-4-yl-sulfanyl]-acetyl}-12{2-[4-(2-amino-ethoxy)-benzylamino]-methyl} mutilin trihydrochloride]	0.25	1	–	–	–
C[C@@H]1CC[C@@]23CCC(=O)[C@H]2[C@]1(C)[C@H](OC(=O)CSc1ccc(CC(=O)NCCCN)cc1)C[C@](C)(CNCCCN)[C@@H](O)[C@@H]3C [Example 1, 12-epi-12-desvinyl-14-O-{{4-[(3-Amino-propylcarbamoyl)-methyl]-phenylsulfanyl}-acetyl}-12-[(3-amino-propylamino)-methyl] mutilin trihydrochloride]	≤ 0.03	0.5	–	–	–
